We go through 14 molecules from US20180318311A1, “TRICYCLIC 2-QUINOLINONES AS ANTIBACTERIALS” (priority 2017, published 2018).

Holding throughout (format): cell-based
In assay [1] the test system is S. aureus NB01006-AVR005, gyrA (S84L), grlA (580F) and grlB (E471K). Kind of assay: microbe, parasite or virus in culture. The note with it: Staphylococcus aureus, 20 h, read-out: Antibacterial activity (MIC) NB01006-AVR005. The gist of the method: (§1)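 CLSI broth microdilution in CAMHB, inoculum ~5×10^5 CFU/mL, two-fold compound dilutions at 1% final DMSO. Plates incubated 20 h at 35°C in ambient air; MIC (μg/mL) is the lowest concentration preventing visible growth, confirmed by OD600.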

Assay [2] relates to S. pneumoniae ATCC 25922 (NB07001). Kind of assay: MIC by broth microdilution, S. pneumoniae NB07001. The note with it: Streptococcus pneumoniae, read-out: Antibacterial activity (MIC) NB07001. The gist of the method: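 CAMHB, ~5×10^5 CFU/mL, 2-fold serial dilutions (final DMSO 1%), 35° C, ambient air, 20 h. Read OD600 plus visual check; MIC = lowest conc. with no visible growth, μg/mL.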
On the technique in general: Dilution methods test growth across graded concentrations, often in twofold steps.

Assay [3] has as its system S. aureus NB01080 fluoroquinolone-resistant clinical isolate. The assay can be described thus: MIC by broth microdilution, S. aureus NB01080. The following applies: Staphylococcus aureus, CAMHB, 35° C., 20 hours, read-out: Antibacterial activity (MIC) NB01080. The gist of the method: as §1
Assay [4] has as its system E. faecalis ATCC 29212 (NB04001). The assay can be described thus: MIC by broth microdilution, E. faecalis NB04001. The following applies: Enterococcus faecalis, ATCC29212, CAMHB, 35° C., 20 hours, read-out: Antibacterial activity (MIC) NB04001. The gist of the method:
as §1

In assay [5] the test system is P. aeruginosa NB52019, wild-type PAO1 strain. Kind of assay: MIC by broth microdilution, P. aeruginosa NB52019. The note with it: Pseudomonas aeruginosa, CAMHB, 35° C., 20 hours, read-out: Antibacterial activity (MIC) NB52019. The gist of the method:
as §1

Assay [6] relates to S. aureus ATCC 49951 (NB01006). Kind of assay: MIC by broth microdilution, S. aureus NB01006. The note with it: Staphylococcus aureus, ATCC49951, CAMHB, 35° C., 20 hours, read-out: Antibacterial activity (MIC) NB01006. The gist of the method: as §1
Assay [7] relates to E. coli ATCC 25922 (NB27001). Kind of assay: MIC by broth microdilution, E. coli NB27001. The following applies: Escherichia coli, ATCC25922, CAMHB, 35° C., 20 hours, read-out: Antibacterial activity (MIC) NB27001. The gist of the method:
as §1

The mark [8] stands for this setting: ATCC25922, S. pneumoniae, CAMHB supplemented with 5% lysed horse blood, 35° C., 20 hours.

Values after ≈ are worked out from the molar mass of the structure shown. Where two headings read alike, the source gives them in different places.

In the case of `C[C@H]1COc2c(N3CCN4CCC3C4)c(F)cc3cc(C(=O)O)c(=O)n1c23` (stereo partly drawn) [Example 1.60, (3S)-10-(1,4-diazabicyclo[3.2.1]octan-4-yl)-9-fluoro-3-methyl-5-oxo-2,3-dihydro-5H-[1,4]oxazino[2,3,4-ij]quinoline-6-carboxylic acid], the MIC is more than 32 µg/mL in assay [1]; 1 to 32 µg/mL (≈ 2.68 to 85.7 µM) in assay [2] (ATCC25922, 20 h); more than 32 µg/mL in assay [3]; 1 to 32 µg/mL (≈ 2.68 to 85.7 µM) in assay [4]; 1 to 32 µg/mL (≈ 2.68 to 85.7 µM) in assay [5]; 1 to 32 µg/mL (≈ 2.68 to 85.7 µM) in assay [6]. For the same molecule, the MIC in assay [7] was 1 to 32 µg/mL (≈ 2.68 to 85.7 µM).

In the case of `C[C@H]1COc2c(N3C4CCC3CC4)c(F)cc3cc(C(=O)O)c(=O)n1c23` [Example 1.61, (S)-10-(7-azabicyclo[2.2.1]heptan-7-yl)-9-fluoro-3-methyl-5-oxo-2,3-dihydro-5H-[1,4]oxazino[2,3,4-ij]quinoline-6-carboxylic acid], the MIC in assay [1], in assay [2] (setting [8]), in assay [3], in assay [4], in assay [5] and in assay [6] was more than 32 µg/mL throughout. The MIC in assay [7] was more than 32 µg/mL.

In the case of `C[C@H]1COc2c(N3CCN4C5CCC(C5)C4C3)c(F)cc3cc(C(=O)O)c(=O)n1c23` (stereo partly drawn) [Example 1.63, (3S)-9-fluoro-3-methyl-10-(octahydro-2H-6,9-methanopyrido[1,2-a]pyrazin-2-yl)-5-oxo-2,3-dihydro-5H-[1,4]oxazino[2,3,4-ij]quinoline-6-carboxylic acid], the MIC in assay [1], in assay [2] (setting [8]), in assay [3], in assay [4], in assay [5] and in assay [6] was more than 32 µg/mL in each case. For the same molecule, the MIC in assay [7] was 1 to 32 µg/mL (≈ 2.42 to 77.4 µM).

Take `C[C@H]1COc2c(N3CC4CCCC(C3)N4)c(F)cc3cc(C(=O)O)c(=O)n1c23` [Example 1.66, (3S)-10-(3,9-diazabicyclo[3.3.1]nonan-3-yl)-9-fluoro-3-methyl-5-oxo-2,3-dihydro-5H-[1,4]oxazino[2,3,4-ij]quinoline-6-carboxylic acid]: the MIC was more than 32 µg/mL in assay [1]; 1 to 32 µg/mL (≈ 2.58 to 82.6 µM) in assay [2] (setting [8]); more than 32 µg/mL in assay [3]; more than 32 µg/mL in assay [4]; more than 32 µg/mL in assay [5]; 1 to 32 µg/mL (≈ 2.58 to 82.6 µM) in assay [6]. Further, the MIC in assay [7] was 1 to 32 µg/mL (≈ 2.58 to 82.6 µM).

With `C[C@H]1COc2c(N3CCC(N)(CO)CC3)c(F)cc3cc(C(=O)O)c(=O)n1c23` [Example 1.67, (S)-10-(4-amino-4-(hydroxymethyl)piperidin-1-yl)-9-fluoro-3-methyl-5-oxo-2,3-dihydro-5H-[1,4]oxazino[2,3,4-ij]quinoline-6-carboxylic acid], the MIC in assay [1] was more than 32 µg/mL; in assay [2] (ATCC25922, 20 h), more than 32 µg/mL; in assay [3] it was more than 32 µg/mL; in assay [4] it was more than 32 µg/mL; in assay [5], more than 32 µg/mL; in assay [6], more than 32 µg/mL. Also, the MIC in assay [7] was more than 32 µg/mL.

Consider `C[C@H]1COc2c(N3CCC(O)(CN)CC3)c(F)cc3cc(C(=O)O)c(=O)n1c23` [Example 1.68, (S)-10-(4-(aminomethyl)-4-hydroxypiperidin-1-yl)-9-fluoro-3-methyl-5-oxo-2,3-dihydro-5H-[1,4]oxazino[2,3,4-ij]quinoline-6-carboxylic acid], for which the MIC was more than 32 µg/mL in assay [1]; more than 32 µg/mL in assay [2] (ATCC25922, 20 h); more than 32 µg/mL in assay [3]; more than 32 µg/mL in assay [4]; more than 32 µg/mL in assay [5]; more than 32 µg/mL in assay [6]. Further, in assay [7], the MIC is more than 32 µg/mL.

For the molecule `C[C@H]1COc2c(N3CCN4CC(F)(F)C[C@H]4C3)c(F)cc3cc(C(=O)O)c(=O)n1c23` [Example 1.72, (S)-10-((S)-7,7-difluorohexahydropyrrolo [1,2-a]pyrazin-2(1H)-yl)-9-fluoro-3-methyl-5-oxo-2,3-dihydro-5H-[1,4]oxazino[2,3,4-ij]quinoline-6-carboxylic acid], the MIC in assay [1] was more than 32 µg/mL; in assay [2] (ATCC25922, 20 h) it was more than 32 µg/mL; in assay [3], more than 32 µg/mL; in assay [4] it was more than 32 µg/mL; in assay [5] it was more than 32 µg/mL; in assay [6], 1 to 32 µg/mL (≈ 2.36 to 75.6 µM). In addition, the MIC in assay [7] is more than 32 µg/mL.

With `C[C@H]1COc2c(N3CCN4C[C@@H](F)C[C@H]4C3)c(F)cc3cc(C(=O)O)c(=O)n1c23` [Example 1.73, (S)-9-fluoro-10-((7S,8aS)-7-fluorohexahydropyrrolo[1,2-a]pyrazin-2(1H)-yl)-3-methyl-5-oxo-2,3-dihydro-5H-[1,4]oxazino[2,3,4-ij]quinoline-6-carboxylic acid], the MIC in assay [1] is more than 32 µg/mL; in assay [2] (ATCC25922, 20 h) it was more than 32 µg/mL; in assay [3], more than 32 µg/mL; in assay [4], more than 32 µg/mL; in assay [5], more than 32 µg/mL; in assay [6], 1 to 32 µg/mL (≈ 2.47 to 78.9 µM). Also, in assay [7], the MIC lay within 1 to 32 µg/mL (≈ 2.47 to 78.9 µM).

For the molecule `C[C@H]1COc2c(N3C[C@H](F)[C@@H](C4(N)CC4)C3)c(F)cc3cc(C(=O)O)c(=O)n1c23` [Example 1.74, (S)-10-((3R,4R)-3-(1-aminocyclopropyl)-4-fluoropyrrolidin-1-yl)-9-fluoro-3-methyl-5-oxo-2,3-dihydro-5H-[1,4]oxazino[2,3,4-ij]quinoline-6-carboxylic acid], the MIC was 1 to 32 µg/mL (≈ 2.47 to 78.9 µM) in assay [1]; less than 1 µg/mL in assay [2] (ATCC25922, 20 h); 1 to 32 µg/mL (≈ 2.47 to 78.9 µM) in assay [3]; 1 to 32 µg/mL (≈ 2.47 to 78.9 µM) in assay [4]; more than 32 µg/mL in assay [5]; less than 1 µg/mL in assay [6]. Besides, the MIC in assay [7] was in the range of 1 to 32 µg/mL (≈ 2.47 to 78.9 µM).

`C[C@H]1COc2c(N3CC[C@@H](C4(N)CCCC4)C3)c(F)cc3cc(C(=O)O)c(=O)n1c23` [Example 1.75, (S)-10-((R)-3-(1-aminocyclopentyl)pyrrolidin-1-yl)-9-fluoro-3-methyl-5-oxo-2,3-dihydro-5H-[1,4]oxazino[2,3,4-ij]quinoline-6-carboxylic acid]: the MIC was 1 to 32 µg/mL (≈ 2.41 to 77 µM) in assay [1]; less than 1 µg/mL in assay [2] (ATCC25922, 20 h); 1 to 32 µg/mL (≈ 2.41 to 77 µM) in assay [3]; 1 to 32 µg/mL (≈ 2.41 to 77 µM) in assay [4]; more than 32 µg/mL in assay [5]; less than 1 µg/mL in assay [6]. Also, in assay [7], the MIC fell in the range of 1 to 32 µg/mL (≈ 2.41 to 77 µM).

As for `C[C@H]1COc2c(N3CC(CC4(N)CC4)C3)c(F)cc3cc(C(=O)O)c(=O)n1c23` [Example 1.76, (S)-10-(3-((1-aminocyclopropyl)methyl)azetidin-1-yl)-9-fluoro-3-methyl-5-oxo-2,3-dihydro-5H-[1,4]oxazino[2,3,4-ij]quinoline-6-carboxylic acid], the MIC in assay [1] is more than 32 µg/mL; in assay [2] (ATCC25922, 20 h), more than 32 µg/mL; in assay [3] it was more than 32 µg/mL; in assay [4] it was more than 32 µg/mL; in assay [5] it was more than 32 µg/mL; in assay [6] it was more than 32 µg/mL. Besides, the MIC in assay [7] was more than 32 µg/mL.

As to `C[C@H]1COc2c(N3C[C@@H](CO)[C@@H](CO)C3)c(F)cc3cc(C(=O)O)c(=O)n1c23` [Example 1.79, (S)-10-((3R,4S)-3,4-bis(hydroxymethyl)pyrrolidin-1-yl)-9-fluoro-3-methyl-5-oxo-2,3-dihydro-5H-[1,4]oxazino[2,3,4-ij]quinoline-6-carboxylic acid], the MIC in assay [1] is more than 32 µg/mL; in assay [2] (ATCC25922, 20 h) it was more than 32 µg/mL; in assay [3], more than 32 µg/mL; in assay [4] it was more than 32 µg/mL; in assay [5] it was more than 32 µg/mL; in assay [6] it was 1 to 32 µg/mL (≈ 2.55 to 81.6 µM). The MIC in assay [7] is more than 32 µg/mL.

Turning to `NC1([C@@H]2CCN(c3c(F)cc4cc(C(=O)O)c(=O)n5c4c3OC[C@@H]5CO)C2)CC1.O=CO` [Example 2, (S)-10-((R)-3-(1-aminocyclopropyl)pyrrolidin-1-yl)-9-fluoro-3-(hydroxymethyl)-5-oxo-2,3-dihydro-5H-[1,4]oxazino[2,3,4-ij]quinoline-6-carboxylic acid formate salt], the MIC in assay [1], in assay [2] (setting [8]), in assay [3], in assay [4], in assay [5] and in assay [6] was more than 32 µg/mL in each case. Further, in assay [7], the MIC was more than 32 µg/mL.

`COC[C@H]1COc2c(N3CC[C@@H](C4(N)CC4)C3)c(F)cc3cc(C(=O)O)c(=O)n1c23.O=CO` [Example 3, (S)-10-((R)-3-(1-aminocyclopropyl)pyrrolidin-1-yl)-9-fluoro-3-(methoxymethyl)-5-oxo-2,3-dihydro-5H-[1,4]oxazino[2,3,4-ij]quinoline-6-carboxylic acid formate salt]: the MIC in assay [1], in assay [2] (setting [8]), in assay [3], in assay [4], in assay [5] and in assay [6] was more than 32 µg/mL each time. The MIC in assay [7] is more than 32 µg/mL.
